According to patent publication US7772269B2, “Pyrazole analogs” (Pfizer Inc., priority 2006, dated 2010):

What was measured:
[1] = clinical trial; cited from earlier work
[2] = Emesis evaluation in beagle dogs; assay type: in vivo; conditions: for emesis / emesis (number of dogs): dogs
Protocol: Experiments were undertaken to differentiate local gastrointestinal emetic stimuli during dissolution and absorption of an oral compound from emetic stimuli produced during systemic exposure through the bloodstream. […] These findings were observed after 8-12 kg purpose-bred beagle dogs were administered 4-(3-{[4-(1-methyl-1H-pyrazol-5-yl)phenyl]thio}phenyl)tetrahydro-2H-pyran-4-carboxamide by IV infusion, using a loading dose followed by a slow infusion to attain a peak blood level over 30 minutes to 1 hour in duration. More specifically, compounds were diluted in phosphate buffered saline to a concentration where 10 ml/kg total volume was administered through an intravenous catheter using an infusion pump, with approximately 90% of the total dose being delivered in the first 5 minutes, and the remaining dose administered over the next 25 minutes. Similar delivery methods to produce an exposure that approximates the systemic pharmacokinetic profile seen with oral delivery are anticipated to give similar results. More rapid methods of administration and the resultant high plasma concentrations are not anticipated to discriminate useful compounds from non-useful compounds. For example, IV bolus administration may produce a higher peak plasma concentration and systemic gastrointestinal effects than those achieved for compounds that following absorption from the GI tract, would have acceptable peak plasma concentrations and therapeutic efficacy. […] Periodic serum and plasma samples were obtained during the first 6 hours to document systemic inhibition of the 5-lipoxygenase enzyme as well as exposure levels of the compound. […] In one study, 4-(3-(4-(2-methyl-1H-imidazol-1-yl)phenylthio)phenyl)-tetrahydro-2H-pyran-4-carboxamide was administered intravenously at 10 mg/kg, 30 mg/kg and 60 mg/kg as well as 30 mg per kg by the oral route. […] In another experiment, 4-(3-{[4-(1-methyl-1H-pyrazol-5-yl)phenyl]thio}phenyl)tetrahydro-2H-pyran-4-carboxamide was administered orally at doses of 100 mg per kg, 300 mg per kg, and 600 mg per kg, with emesis only observed in 2 dogs at 100 mg per kg and one dog at 300 mg per kg.

5-LO [3] = target: T1, 5-LO (Rattus norvegicus, UniProt P12527); test: Carrageenan-induced eicosanoid production in the rat air pouch; assay type: in vivo; conditions: leukotriene levels in rat air pouch fluid, lower % = higher activity
T1 construct: from tissue; host or cells: rat air pouch (Lewis rat, in vivo)
T1 sequence (P12527 1-673): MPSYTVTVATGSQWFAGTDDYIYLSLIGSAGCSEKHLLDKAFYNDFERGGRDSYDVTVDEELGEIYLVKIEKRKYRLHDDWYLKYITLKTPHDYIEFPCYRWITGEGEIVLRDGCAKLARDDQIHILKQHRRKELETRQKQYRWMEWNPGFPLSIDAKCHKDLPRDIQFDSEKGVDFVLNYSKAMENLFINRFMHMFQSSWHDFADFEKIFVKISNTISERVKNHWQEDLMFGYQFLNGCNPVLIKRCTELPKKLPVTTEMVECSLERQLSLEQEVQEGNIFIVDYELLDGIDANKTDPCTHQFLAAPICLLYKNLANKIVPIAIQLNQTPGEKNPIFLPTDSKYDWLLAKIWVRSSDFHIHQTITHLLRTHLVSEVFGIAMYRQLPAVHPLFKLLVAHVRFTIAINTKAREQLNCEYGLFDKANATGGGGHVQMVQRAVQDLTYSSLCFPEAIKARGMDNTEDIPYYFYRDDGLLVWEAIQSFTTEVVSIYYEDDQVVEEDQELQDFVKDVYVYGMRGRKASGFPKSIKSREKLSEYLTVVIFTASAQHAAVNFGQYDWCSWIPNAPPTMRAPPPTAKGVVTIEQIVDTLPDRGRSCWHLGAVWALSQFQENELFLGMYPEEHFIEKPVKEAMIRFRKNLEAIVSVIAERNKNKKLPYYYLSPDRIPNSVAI
Protocol: For a correct interpretation of the results, it is noted that the lower the % of control, the higher the activity of a test compound. Male Lewis rats (175-200 g), Charles River Laboratories, Wilmington, Mass.) were used in the study. Air pouches were produced by subcutaneous injection of 20 ml of sterile air into the intrascapular area of the back. Pouches were allowed to develop for 1 day. Animals (6 per group) were fasted with free access to water for 16 to 24 hours prior to drug administration. Drugs or vehicle were administered by gavage 1 hour prior to injection of 2 ml of a 1% suspension of carrageenan (FMC BioPolymer, Philadelphia, Pa., Cat. # GP209-NF) dissolved in saline into the pouch. At 3 hours post-carrageenan injection, 1 ml of 50 μg/ml calcium ionophore in saline (A23187, Sigma Chemical Co, St. Louis, M, Cat. #C-7522) was injected into the pouch and the pouch fluid collected 10 minutes later by lavage. The fluid was centrifuged at 3500 rpm for 10 minutes at 4° C., and the supernatants were collected for analysis. Leukotriene levels were quantitated by ELISA according to the manufacturer's directions (Cayman Chemical Company, Ann Arbor, Mich.).

5-LO [4] = target: T2, 5-LO (Homo sapiens, UniProt P09917); test: Eicosanoid production from human whole blood (HWB/LTB4: ionophore induced LTB4); assay type: cell-based; design: from tissue; host or cells: pooled human whole blood
T2 sequence (P09917 1-674): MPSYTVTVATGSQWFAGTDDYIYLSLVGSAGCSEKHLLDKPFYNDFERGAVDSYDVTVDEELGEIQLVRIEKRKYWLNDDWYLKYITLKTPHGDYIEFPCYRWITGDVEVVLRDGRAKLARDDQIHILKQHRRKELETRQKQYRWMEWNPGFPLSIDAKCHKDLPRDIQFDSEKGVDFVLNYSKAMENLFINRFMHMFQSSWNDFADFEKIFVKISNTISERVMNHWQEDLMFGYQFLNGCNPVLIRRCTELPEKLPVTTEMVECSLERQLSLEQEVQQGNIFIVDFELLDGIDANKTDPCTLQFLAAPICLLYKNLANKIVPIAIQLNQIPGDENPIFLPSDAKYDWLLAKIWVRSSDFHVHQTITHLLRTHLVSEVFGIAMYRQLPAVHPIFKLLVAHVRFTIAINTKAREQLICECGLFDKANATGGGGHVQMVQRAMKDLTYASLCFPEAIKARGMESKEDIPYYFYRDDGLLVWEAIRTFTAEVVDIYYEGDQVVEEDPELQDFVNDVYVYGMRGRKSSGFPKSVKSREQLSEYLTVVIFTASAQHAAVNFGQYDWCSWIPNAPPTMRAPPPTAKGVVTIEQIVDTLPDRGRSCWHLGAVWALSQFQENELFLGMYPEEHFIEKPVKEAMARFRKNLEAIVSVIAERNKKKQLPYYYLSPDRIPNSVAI
Protocol: Human whole blood was collected from healthy or asthmatic human donors in 10 ml heparinized tubes (Vacutainer tubes; Becton Dickenson, Franklin Lakes, N.J.). Collected blood was pooled and 80 μl was dispensed into each well of 384 well polypropylene plates using a Multi-Drop™ 384-well dispenser (Titertek, Huntsville, Ala.). Varying concentrations of compounds were dissolved in DMSO then 2 μl/well was added to the blood using a PlateMate Plus™ automated pipetting station (Matrix Technologies, Hudson, N.H.). The compounds were preincubated with the blood at room temperature for 10 minutes followed by stimulation with 40 μl calcium ionophore (A23187, Sigma Chemical Co, St. Louis, Mo., Cat. # C-7522) and 30 μl arachidonic acid (S-1133, NU-Chek PREP, Inc., Elysian, MN, Cat. # S-1133) dissolved in 60% ethanol. After 15 min incubation at 37° C. in a shallow water bath, the blood was centrifuged at 800 g for 10 minutes at 4° C., the supernatants collected, and leukotriene and prostaglandin levels measured by ELISA according to the manufacturer's directions (Cayman Chemical Company, Ann Arbor, Mich.). The assay was performed at a final concentration of 2.5% DMSO. Results of this assay are shown as follows:
HWB/LTB4: Ionophore Induced LTB4 from Human Whole Blood

5-LO [5] = target: T2, 5-LO; test: Fluorescence Intensity 5-LO Enzyme Assay; assay type: biochemical; conditions: recombinant human 5-LO crude lysate, H2DCFDA oxidation, 3 μM arachidonic acid
Protocol: The enzyme assay is based on the oxidation of the non-fluorescent compound 2′,7′-dichlorodihydrofluorescein diacetate (H2DCFDA) to the fluorescent 2′,7′ dichlorofluorescein by 5-LO in an arachidonic acid-dependent reaction. Ester cleavage of the acetate groups of the substrate H2DCFDA must occur prior to oxidation. This is achieved through use of a crude cell lysate preparation of recombinant human 5-LO. The enzyme assay ([…]) contained 50 mM Tris (pH 7.5), 2 mM CaCl2, 2 mM EDTA, 3 μM arachidonic acid (Nu-Chek Prep; #S-1133), 10 μM ATP, 10 μM H2DCFDA (Invitrogen; #D399), inhibitor (varying concentration) and recombinant human 5-LO enzyme (1.25 μL crude lysate per well).
Inhibitors (dissolved in DMSO) were plated into a 384-well assay plate (Corning #3654) at 1 μL followed by a 20 μL addition of a solution containing 5-LO enzyme and H2DCFDA. Enzyme and H2DCFDA were pre-incubated for 5 minutes to allow time for acetate group cleavage of the dye prior to addition to the assay plate. After a 10 minute preincubation of inhibitor and enzyme/dye mix, the assay was initiated by the addition of a substrate solution containing arachidonic acid and ATP. The enzymatic reaction was run for 20 min at room temperature and terminated by the addition of 40 μL of acetonitrile. Assay plates were read in a plate reader using standard wavelengths for fluorescein. […]

5-lipoxygenase enzyme = test: Systemic inhibition of the 5-lipoxygenase enzyme in dogs (emesis study); assay type: in vivo, beagle dogs; conditions: 5 mg/kg IV
Protocol: Experiments were undertaken to differentiate local gastrointestinal emetic stimuli during dissolution and absorption of an oral compound from emetic stimuli produced during systemic exposure through the bloodstream. […] These findings were observed after 8-12 kg purpose-bred beagle dogs were administered 4-(3-{[4-(1-methyl-1H-pyrazol-5-yl)phenyl]thio}phenyl)tetrahydro-2H-pyran-4-carboxamide by IV infusion, using a loading dose followed by a slow infusion to attain a peak blood level over 30 minutes to 1 hour in duration. More specifically, compounds were diluted in phosphate buffered saline to a concentration where 10 ml/kg total volume was administered through an intravenous catheter using an infusion pump, with approximately 90% of the total dose being delivered in the first 5 minutes, and the remaining dose administered over the next 25 minutes. Similar delivery methods to produce an exposure that approximates the systemic pharmacokinetic profile seen with oral delivery are anticipated to give similar results. More rapid methods of administration and the resultant high plasma concentrations are not anticipated to discriminate useful compounds from non-useful compounds. […]

| % of Control (5-LO [3]; dose 1 mg/kg by gavage) | % of Control (5-LO [3]; dose 3 mg/kg by gavage) | % of Control (5-LO [3]; dose 10 mg/kg by gavage) | IC50 (5-LO [4]) | IC80 (5-LO [4]) | IC90 (5-LO [4]) | IC50 (5-LO [5]) | % of Control (5-LO [3]; dose 3 mg/kg by gavage, 3 mg/kg) | % of Control (5-LO [3]; dose 3 mg/kg by gavage, listed as 4-(3-{[4-(1-methyl-1H-pyrazol-5-yl)phenyl]thio}phenyl)tetrahydro-2H-pyran-4-carb, 3 mg/kg) | SMILES | nausea or emesis [1] | emesis ([2]; intravenously at 10, 30 and 60 mg/kg and 30 mg per kg oral) | nausea and emesis ([2]; beagle dogs, IV infusion (loading dose followed by slow infusion)) | emesis ([2]; 5 mg/kg IV) | emesis (number of dogs) ([2]; another experiment, oral 100 mg per kg) | emesis (number of dogs) ([2]; another experiment, oral 300 mg per kg) | emesis ([2]; another experiment, oral 600 mg per kg) | emesis ([2]; oral route, doses of 10 and 100 mg per kg) | inhibition of the 5-LO enzyme (5-lipoxygenase enzyme) |
| --- | --- | --- | --- | --- | --- | --- | --- | --- | --- | --- | --- | --- | --- | --- | --- | --- | --- | --- |
|  |  |  |  |  |  |  |  |  | Cc1nccn1-c1ccc(Sc2cccc(C3(C(N)=O)CCOCC3)c2)cc1 [4-(3-(4-(2-methyl-1H-imidazol-1-yl)phenylthio)phenyl)-tetrahydro-2H-pyran-4-carboxamide, reference compound] | 30 % of human subjects | Emesis was observed in all dogs |  |  |  |  |  |  |  |
| 25.74 % of Control | 0 % of Control | 0 % of Control | 152 nM | 357 nM | 1310 nM | 204 nM |  |  | Cn1nccc1-c1ccc(Sc2cccc(C3(C(N)=O)CCOCC3)c2)cc1F [(Ia), 4-(3-{[3-fluoro-4-(1-methyl-1H-pyrazol-5-yl)phenyl]thio}phenyl)tetrahydro-2H-pyran-4-carboxamide] |  |  |  |  |  |  |  |  |  |
| 20.24 % of Control |  | 2.30 % of Control | 135 nM | 397 nM | 716 nM | 229 nM | 5.23 % of Control | 20 % of Control | Cn1nccc1-c1ccc(Sc2cccc(C3(C(N)=O)CCOCC3)c2)cc1 [(Ib), 4-(3-{[4-(1-methyl-1H-pyrazol-5-yl)phenyl]thio}phenyl)tetrahydro-2H-pyran-4-carboxamide] |  |  | produce nausea and emesis through systemic exposure | no observed emesis | 2 dogs | one dog | No emesis was observed | emesis in only one dog at 100 mg per kg | 100% |
